The values that follow come from patent US6933309B2, “Halogenobenzyl aminopropionic acid derivatives” (Toaeiyo Ltd., priority 2002, dated 2005).

Like-named read-outs stand apart in the source and are kept apart here.

In data set [1] the test system is male KKA^y mice (obesity/noninsulin-dependent diabetes mellitus model). The experiment in a line: Blood glucose lowering effect and blood lipid (blood TG and blood FFA) lowering effect in mice. To be noted: 1 mg/kg/day oral, once a day over seven days, plasma on the day following final administration, vs control group; for inhibition in vivo at 1 mg/kg/day: Mus musculus, po, 168 h. The class given is in vivo. The protocol:
Blood glucose Lowering Effect and Blood Lipid (Blood TG and Blood FFA) Lowering Effect in Mice
Each of the test compounds was suspended in a 0.5-%(w/v) sodium CMC solution, and the suspension was forcedly administered via oral route once a day over seven days to male KKA^y mice (obesity/noninsulin-dependent diabetes mellitus model, 6 to 7 weeks old, 3 to 5 animals per group) (1 mg/kg/day). During this 7-day period, feed and water were taken ad libitum. On the day following the final administration, blood was drawn from the tail vein without anesthesia and centrifuged, to thereby prepare plasma samples. Plasma glucose level, plasma TG level, and plasma FFA level of the samples were determined through the enzymatic method by use of an L-type Wako Glu2 (Wako Pure Chemical Industries), an L-type Wako TG-H (Wako Pure Chemical Industries), and an NEFA-HA Test Wako (Wako Pure Chemical Industries), respectively, by means of a full-automated clinical chemistry analyzer (CL-8000, Shimadzu Corporation). Percent reduction was determined from the obtained values by use of the following equations.

For a further data set, the system named is KKA^y mice. The experiment in a line: Plasma adiponectin level in KKA^y mice after two weeks of oral administration. Format: in vivo. To be noted: over two weeks, 0.1, 0.3, or 1 mg/kg/day. As for the experimental part:
Separately, the present compound (1) or a salt thereof was orally administered to KKA^y mice over two weeks (0.1, 0.3, or 1 mg/kg/day), and plasma adiponectin level of each mouse was determined.

[2] abbreviates: read-out: Percent reduction of blood FFA level.
[3] abbreviates: read-out: Percent reduction of blood TG level.
The mark [4] stands for this setting: read-out: Percent reduction of blood glucose level.

Molecule `Cc1oc(-c2ccccc2)nc1CCOc1ccc(C[C@H](NCc2ccccc2Cl)C(=O)O)cc1` [Compound 32, (S)-3-[4-[2-(5-Methyl-2-phenyl-1,3-oxazol-4-yl)ethoxy]phenyl]-2-(2-chlorobenzylamino)propionic Acid] yielded a melting point of 143 to 145 °C. The inhibition in vivo at 1 mg/kg/day in data set [1] (setting [2]) is 13%. In data set [1] (setting [3]), the inhibition in vivo at 1 mg/kg/day was found to be 33%. Also, the inhibition in vivo at 1 mg/kg/day in data set [1] (setting [4]) is 39%.

For `Cc1ccc(-c2nc(CCOc3ccc(C[C@H](NCc4ccc(F)cc4)C(=O)O)cc3)c(C)o2)cc1` [Compound 20, (S)-3-[4-[2-[5-Methyl-2-(4-methylphenyl)-1,3-oxazol-4-yl]ethoxy]phenyl]-2-(4-fluorobenzylamino)propionic Acid], the melting point lay in the range of 196 to 198 °C. For the same molecule, the inhibition in vivo at 1 mg/kg/day in data set [1] (setting [2]) was 25%. The inhibition in vivo at 1 mg/kg/day in data set [1] (setting [3]) turned out to be 36%. For the same molecule, in data set [1] (setting [4]), the inhibition in vivo at 1 mg/kg/day was 21%.

In turn, `Cc1oc(-c2ccccc2)nc1CCOc1ccc(C[C@H](NCc2c(F)cc(F)cc2F)C(=O)O)cc1` [Compound 29, (S)-3-[4-[2-(5-Methyl-2-phenyl-1,3-oxazol-4-yl)ethoxy]phenyl]-2-(2,4,6-trifluorobenzylamino)propionic Acid] came in with a melting point of 168 to 170 °C. Besides, the inhibition in vivo at 1 mg/kg/day in data set [1] (setting [2]) was found to be 58%. In addition, the inhibition in vivo at 1 mg/kg/day in data set [1] (setting [3]) was 74%. Moreover, in data set [1] (setting [4]), the inhibition in vivo at 1 mg/kg/day was determined as 43%.

`Cc1sc(N2CCOCC2)nc1CCOc1ccc(C[C@H](NCc2ccc(F)cc2)C(=O)O)cc1` [Compound 23, (S)-3-[4-[2-[5-Methyl-2-(morpholin-4-yl)-1,3-thiazol-4-yl]ethoxy]phenyl]-2-(4-fluorobenzylamino)propionic Acid] returned a melting point of 192 to 194 °C.

`Cc1oc(-c2ccccc2)nc1CCOc1ccc(C[C@H](NCc2cccc(F)c2F)C(=O)O)cc1` [Compound 27, (S)-3-[4-[2-(5-Methyl-2-phenyl-1,3-oxazol-4-yl)ethoxy]phenyl]-2-(2,3-difluorobenzylamino)propionic Acid] returned a melting point of 173 to 175 °C. Besides, in data set [1] (setting [2]), the inhibition in vivo at 1 mg/kg/day amounted to 16%. In addition, the inhibition in vivo at 1 mg/kg/day in data set [1] (setting [3]) worked out at 48%. Further, the inhibition in vivo at 1 mg/kg/day in data set [1] (setting [4]) was 40%.

`Cc1oc(-c2ccccc2)nc1CCOc1ccc(C[C@H](NCc2ccc(F)cc2)C(=O)O)cc1` [Compound 18, (S)-3-[4-[2-(5-Methyl-2-phenyl-1,3-oxazol-4-yl)ethoxy]phenyl]-2-(4-fluorobenzylamino)propionic Acid] registered a melting point of 184.5 to 186.5 °C. For the same molecule, in data set [1], the “Percent reduction of blood FFA level” value is listed as 27%, the “Percent reduction of blood TG level” value turned out to be 40% and the “Percent reduction of blood glucose level” value stood at 15%. In the data set on KKA^y mice, the “effect of increasing plasma adiponectin level” value was “particularly excellent effect of increasing plasma adiponectin level”.

For the molecule `Cc1oc(-c2ccccc2)nc1CCOc1ccc(C[C@H](NCc2ccc(F)cc2)C(=O)[O-])cc1.[Na+]` [Compound 35, Sodium (S)-3-[4-[2-(5-methyl-2-phenyl-1,3-oxazol-4-yl)ethoxy]phenyl]-2-(4-fluorobenzylamino)propionate], the melting point was 179 to 181 °C. Besides, the “Percent reduction of blood glucose level” value in data set [1] turned out to be 36%. In addition, the inhibition in vivo at 1 mg/kg/day in data set [1] (setting [2]) came to 33%. The inhibition in vivo at 1 mg/kg/day in data set [1] (setting [3]) is 47%.

As to `Cc1oc(-c2ccccc2)nc1CCOc1ccc(C[C@H](NCc2ccc(F)c(F)c2)C(=O)O)cc1` [Compound 26, (S)-3-[4-[2-(5-Methyl-2-phenyl-1,3-oxazol-4-yl)ethoxy]phenyl]-2-(3,4-difluorobenzylamino)propionic Acid], the melting point lay within 202 to 204 °C.

`Cc1oc(-c2ccc(C(F)(F)F)cc2)nc1CCOc1ccc(C[C@H](NCc2ccc(F)cc2)C(=O)O)cc1` [Compound 21, (S)-3-[4-[2-[5-Methyl-2-(4-trifluoromethylphenyl)-1,3-oxazol-4-yl]ethoxy]phenyl]-2-(4-fluorobenzylamino)propionic Acid]: the melting point lay in the range of 202 to 204 °C.

In turn, `CCOC(=O)[C@H](Cc1ccc(OCCc2nc(-c3ccccc3)oc2C)cc1)NCc1ccc(F)cc1.CS(=O)(=O)O` [Compound 38, Ethyl(S)-3-[4-[2-(5-methyl-2-phenyl-1,3-oxazol-4-yl)ethoxy]phenyl]-2-(4-fluorobenzylamino)propionate methanesulfonate] registered a melting point of 144 °C. The inhibition in vivo at 1 mg/kg/day in data set [1] (setting [2]) was determined as 16%. Moreover, the inhibition in vivo at 1 mg/kg/day in data set [1] (setting [3]) amounted to 33%. Besides, the inhibition in vivo at 1 mg/kg/day in data set [1] (setting [4]) was found to be 25%.

Molecule `Cc1oc(-c2ccccc2)nc1CCOc1ccc(C[C@H](NCc2ccccc2F)C(=O)O)cc1` [Compound 24, (S)-3-[4-[2-(5-Methyl-2-phenyl-1,3-oxazol-4-yl)ethoxy]phenyl]-2-(2-fluorobenzylamino)propionic Acid] returned a melting point of 191 to 193 °C.

On to `Cc1oc(-c2ccccc2)nc1CCOc1ccc(C[C@H](NCc2c(F)cccc2F)C(=O)O)cc1` [Compound 28, (S)-3-[4-[2-(5-Methyl-2-phenyl-1,3-oxazol-4-yl)ethoxy]phenyl]-2-(2,6-difluorobenzylamino)propionic Acid], for which the melting point is 165 to 167 °C. For the same molecule, the inhibition in vivo at 1 mg/kg/day in data set [1] (setting [2]) worked out at 54%. In addition, the inhibition in vivo at 1 mg/kg/day in data set [1] (setting [3]) came out at 65%. Moreover, the inhibition in vivo at 1 mg/kg/day in data set [1] (setting [4]) was 50%.

`Cc1oc(-c2ccccc2)nc1CCOc1ccc(C[C@H](NCc2ccc(Br)cc2)C(=O)O)cc1` [Compound 33, (S)-3-[4-[2-(5-Methyl-2-phenyl-1,3-oxazol-4-yl)ethoxy]phenyl]-2-(4-bromobenzylamino)propionic Acid]: the melting point lay within 196 to 199 °C.

Regarding `Cc1oc(-c2ccc(F)cc2)nc1CCOc1ccc(C[C@H](NCc2ccc(F)cc2)C(=O)O)cc1` [Compound 19, (S)-3-[4-[2-[2-(4-Fluorophenyl)-5-methyl-1,3-oxazol-4-yl]ethoxy]phenyl]-2-(4-fluorobenzylamino)propionic Acid], the melting point lay in the range of 191 to 193 °C.

In turn, `Cc1sc(-c2ccccc2)nc1CCOc1ccc(C[C@H](NCc2ccc(F)cc2)C(=O)O)cc1` [Compound 22, (S)-3-[4-[2-(5-Methyl-2-phenyl-1,3-thiazol-4-yl)ethoxy]phenyl]-2-(4-fluorobenzylamino)propionic Acid] had a melting point of 192 to 195 °C. Further, the inhibition in vivo at 1 mg/kg/day in data set [1] (setting [2]) was 36%. For the same molecule, the inhibition in vivo at 1 mg/kg/day in data set [1] (setting [3]) came out at 53%. The inhibition in vivo at 1 mg/kg/day in data set [1] (setting [4]) was found to be 33%.

Turning to `Cc1oc(-c2ccccc2)nc1CCOc1ccc(C[C@H](NCc2ccc(F)cc2)C(=O)O)cc1.Cl`, the melting point was in the range of 198 to 200 °C.

As for `Cc1oc(-c2ccccc2)nc1CCOc1ccc(C[C@H](NCc2ccccc2)C(=O)O)cc1` [Comparative Compound 1, (S)-3-[4-[2-(5-Methyl-2-phenyl-1,3-oxazol-4-yl)ethoxy]phenyl]-2-(benzylamino)propionic Acid], the melting point was in the range of 206 to 209 °C. Moreover, the inhibition in vivo at 1 mg/kg/day in data set [1] (setting [2]) was -2%. Besides, in data set [1] (setting [3]), the inhibition in vivo at 1 mg/kg/day was 17%. Also, the inhibition in vivo at 1 mg/kg/day in data set [1] (setting [4]) was found to be 12%.

`Cc1oc(-c2ccccc2)nc1CCOc1ccc(C[C@H](NCc2ccc(F)cc2F)C(=O)O)cc1` [Compound 25, (S)-3-[4-[2-(5-Methyl-2-phenyl-1,3-oxazol-4-yl)ethoxy]phenyl]-2-(2,4-difluorobenzylamino)propionic Acid] displayed a melting point of 190 to 192 °C.

Molecule `Cc1oc(-c2ccccc2)nc1CCOc1ccc(C[C@@H](C(=O)O)N(C)Cc2ccc(F)cc2)cc1` [Compound 34, (S)-3-[4-[2-(5-Methyl-2-phenyl-1,3-oxazol-4-yl)ethoxy]phenyl]-2-[N-(4-fluorobenzyl)-N-methylamino]propionic Acid] returned a melting point of 142 to 145 °C.

Consider `Cc1oc(-c2ccccc2)nc1CCOc1ccc(C[C@H](NCc2ccc(Cl)cc2)C(=O)O)cc1` [Compound 31, (S)-3-[4-[2-(5-Methyl-2-phenyl-1,3-oxazol-4-yl)ethoxy]phenyl]-2-(4-chlorobenzylamino)propionic Acid], for which the melting point fell in the range of 197 to 199 °C.
